Patent US12637440B2, “Amide derivative useful as diacylglycerol acyltransferase 2 inhibitor, and use thereof” (LG CHEM, LTD., priority 2019, dated 2026)

Target: T1, Recombinant human DGAT2 protein (Homo sapiens, UniProt Q96PD7)
T1 construct: FLAG (DYKDDDDK); (N); made in house; host or cells: Sf-21 insect cells (BacPAK baculovirus system); used as a membrane preparation
T1 sequence (Q96PD7 1-388): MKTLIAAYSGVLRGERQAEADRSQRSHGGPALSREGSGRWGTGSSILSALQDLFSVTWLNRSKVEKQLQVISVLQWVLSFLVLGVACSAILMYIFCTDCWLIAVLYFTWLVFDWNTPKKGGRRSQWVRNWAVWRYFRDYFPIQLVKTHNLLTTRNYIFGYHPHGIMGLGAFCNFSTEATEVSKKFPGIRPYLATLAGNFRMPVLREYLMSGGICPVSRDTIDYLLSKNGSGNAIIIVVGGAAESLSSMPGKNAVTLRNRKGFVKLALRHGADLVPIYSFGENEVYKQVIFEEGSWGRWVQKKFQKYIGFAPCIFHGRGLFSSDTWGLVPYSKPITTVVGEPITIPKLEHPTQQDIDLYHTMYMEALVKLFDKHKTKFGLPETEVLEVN
Assay: Measurement of inhibitory effect against DGAT2 enzyme activity (SPA, Phospholipid FlashPlate, [14C]-TG production)
Format: biochemical
Details: concentration inhibiting [14C]-labeled triacyl glycerol (TG) production by 50%; 2 μg DGAT2-membrane protein from Sf-21 cells, 37° C.
Method: Experimental Example: Measurement of Inhibitory Effect Against DGAT2 Enzyme Activity
In order to prepare the pBacPAK9-DGAT2, which is DGAT2 expression vector, the human DGAT2 gene amplified by polymerase chain reaction (PCR) was cloned into the EcoR1 and Xho1 sites of the pBacPAK9 (clonctech) vector. The nucleotide sequence of the primers used in PCR was the forward primer 5′ […] and the reverse primer 5′ […]. The composition of the reaction solution was to contain 50 ng of cDNA clone (OriGene), 200 μM of dATP, dCTP, dTTP, dGTP, 200 nM of each primer, 1 unit of Tag DNA Polymerase (Toyobo), 1×PCR buffer, and the final volume was adjusted to 20 μl. The reaction conditions were denatured at 95° C. for 5 minutes, followed by 30 times of 94° C. for 20 seconds, 60° C. for 20 seconds, and 72° C. for 90 seconds, followed by further reaction at 72° C. for 7 minutes.
Recombinant human DGAT2 protein was expressed in Sf-21 cells, which are insect cells, by using the BacPack baculovirus expression system (Clontech). The brief manufacturing process is as follows. First, the pBacPAK9-DGAT2 expression vector was transfected with BacPAK6 virus DNA (Bsu36I digest) into sf21 cells using Bacfectin to prepare a recombinant DGAT2 expressing baculovirus. The thus prepared baculovirus was infected with Sf-21 cells at 10 MOI (multiplicity of infection), and after 72 hours, infected insect cells were collected and membrane proteins were isolated. For membrane protein separation, the cell pellet was dissolved in a sucrose solution containing 250 mM sucrose, 10 mM Tris (pH 7.4), and 1 mM ethylenediamine-tetraacetic acid (EDTA), and then homogenized by using a dounce homogenizer, and the supernatant was taken by centrifuging at 600×g for 15 minutes, and centrifuged at 100,000×g for 1 hour to discard the supernatant, and the remaining pellet was resuspended in 20 mM HEPES buffer (pH 7.4). The prepared DGAT2 overexpressing membrane protein was dispensed in 100 μl and stored at −80° C. until use. Protein concentration was quantified by using the BCA Protein Assay Kit (Thermo Scientific).
In vitro DGAT2 analysis was performed using a Phospholipid Flash Plate (PerkinElmer) based on the principle of SPA (Scintillation Proximity Assay). First, DGAT2 inhibition compounds serially diluted 5 times from 3 nM to 10 μM (final concentration, 1% DMSO) were mixed in a buffer solution containing 2 μg DGAT2-membrane protein and 20 mM HEPES, 20 mM MgCl2, 1 mg/mL BSA, 50 μM 1,2 sn-oleoyl glycerol (Sigma), put in a 96-well flash plate (FlashPlate) and reacted at 37° C. for 20 minutes, and then 1 μM [14C] ole oil CoA (PerkinElmer, NEC651050UC) was added to be a final volume of 100 μL and further reacted at 37° C. for 15 minutes. After the enzymatic reaction was completed, 100 μL of isopropanol was added, the plate was sealed with a film, and the plate was shaken slowly in a plate shaker. The next day, the amplified scintillation signal (cpm) in Topcounter (Packard) was measured to measure the degree of production of [14C]-labeled triacyl glycerol (TG) as a reaction product. The measured value when the compound was not treated was used as a positive control, and the measured value of the compound treated group was calculated as a relative % to measure the inhibition effect of the compound on TG production.

SMILES	IC50
CCOc1ccccc1O[C@@H]1CCCN(c2cncc(NC(=O)N[C@@H](Cc3ccccc3)C(=O)O)n2)C1 [Example 2, ((6-((R)-3-(2-ethoxyphenoxy)piperidin-1-yl)pyrazin-2-yl)carbamoyl)-L-phenylalanine]	16 µM
CCOc1ccccc1O[C@@H]1CCCN(c2cncc(NC(=O)N3CCOCC3)n2)C1 [Example 3, (R)—N-(6-(3-(2-ethoxyphenoxy)piperidin-1-yl)pyrazin-2-yl)morpholine-4-carboxamide]	2.3 µM
CCOc1ccccc1O[C@@H]1CCCN(c2cncc(NC(=O)N3CCCC3)n2)C1 [Example 4, (R)—N-(6-(3-(2-ethoxyphenoxy)piperidin-1-yl)pyrazin-2-yl)pyrrolidine-1-carboxamide]	1.6 µM
CCOc1ccccc1O[C@@H]1CCCN(c2cncc(NC(=O)N3CCC(C(=O)O)C3)n2)C1 (stereo partly drawn) [Example 5, 1-((6-((R)-3-(2-ethoxyphenoxy)piperidin-1-yl)pyrazin-2-yl)carbamoyl)pyrrolidine-3-carboxylic acid]	51 µM
CCOc1ccccc1O[C@@H]1CCCN(c2cncc(NC(=O)c3cccc(OC)c3)n2)C1 [Example 8, (R)—N-(6-(3-(2-ethoxyphenoxy)piperidin-1-yl)pyrazin-2-yl)-3-methoxybenzamide]	0.23 µM
CCOc1ccccc1O[C@@H]1CCCN(c2cncc(NC(=O)c3ccc(OC)cc3)n2)C1 [Example 9, (R)—N-(6-(3-(2-ethoxyphenoxy)piperidin-1-yl)pyrazin-2-yl)-4-methoxybenzamide]	0.09 µM
CCOc1ccccc1O[C@@H]1CCCN(c2cncc(NC(=O)c3ccccc3C(=O)O)n2)C1 [Example 11, (R)-2-((6-(3-(2-ethoxyphenoxy)piperidin-1-yl)pyrazin-2-yl)carbamoyl)benzoic acid]	16 µM
CCOc1ccccc1O[C@@H]1CCCN(c2cncc(NC(=O)c3ccc(CC(=O)O)cc3)n2)C1 [Example 12, (R)-2-(4-((6-(3-(2-ethoxyphenoxy)piperidin-1-yl)pyrazin-2-yl)carbamoyl)phenyl)acetic acid]	4 µM
CCOc1ccccc1O[C@@H]1CCCN(c2cncc(NC(=O)c3ccc(C(C)(C)C(=O)O)cc3)n2)C1 [Example 13, (R)-2-(4-((6-(3-(2-ethoxyphenoxy)piperidin-1-yl)pyrazin-2-yl)carbamoyl)phenyl)-2-methylpropanoic acid]	9.1 µM
CCOc1ccccc1O[C@@H]1CCCN(c2cncc(NC(=O)c3ccc(OC(C)(C)C(=O)O)cc3)n2)C1 [Example 14, (R)-2-(4-((6-(3-(2-ethoxyphenoxy)piperidin-1-yl)pyrazin-2-yl)carbamoyl)phenoxy)-2-methylpropanoic acid]	12 µM
CCOc1ccccc1O[C@@H]1CCCN(c2cncc(NC(=O)C3CCN(C(C)=O)CC3)n2)C1 [Example 16]	0.39 µM
CCOc1ccccc1O[C@@H]1CCCN(c2cncc(NC(=O)CCC(=O)O)n2)C1 [Example 19, (R)-4-((6-(3-(2-ethoxyphenoxy)piperidin-1-yl)pyrazin-2-yl)amino)-4-oxobutanoic acid]	~15 µM
CCOc1ccccc1O[C@@H]1CCCN(c2cncc(NC(=O)C3CCC[C@H]3C(=O)O)n2)C1 (stereo partly drawn) [Example 20, (1R)-2-((6-((R)-3-(2-ethoxyphenoxy)piperidin-1-yl)pyrazin-2-yl)carbamoyl)cyclopentane-1-carboxylic acid]	4 µM
CCOc1ccccc1O[C@@H]1CCCN(c2cncc(NC(=O)C34CCC(C(=O)O)(CC3)CC4)n2)C1 [Example 21, (R)-4-((6-(3-(2-ethoxyphenoxy)piperidin-1-yl)pyrazin-2-yl)carbamoyl)bicyclo[2.2.2]octane-1-carboxylic acid]	4.8 µM
CCOc1ccccc1O[C@@H]1CCCN(c2cncc(NC(=O)CC(C)(C)C(=O)O)n2)C1 [Example 22, (R)-4-((6-(3-(2-ethoxyphenoxy)piperidin-1-yl)pyrazin-2-yl)amino)-2,2-dimethyl-4-oxobutanoic acid]	1.3 µM
CCOc1ccccc1O[C@@H]1CCCN(c2cncc(N3C(=O)CC(C)(C)C3=O)n2)C1 [Example 23, (R)-1-(6-(3-(2-ethoxyphenoxy)piperidin-1-yl)pyrazin-2-yl)-3,3-dimethylpyrrolidine-2,5-dione]	7.4 µM
CCOc1ccccc1O[C@@H]1CCCN(c2cncc(NC(=O)CCC(C)(C)C(=O)O)n2)C1 [Example 24, (R)-5-((6-(3-(2-ethoxyphenoxy)piperidin-1-yl)pyrazin-2-yl)amino)-2,2-dimethyl-5-oxopentanoic acid]	0.3 µM
CCOc1ccccc1O[C@@H]1CCCN(c2cncc(NC(=O)CC(C)(C)CC(=O)O)n2)C1 [Example 25, (R)-5-((6-(3-(2-ethoxyphenoxy)piperidin-1-yl)pyrazin-2-yl)amino)-3,3-dimethyl-5-oxopentanoic acid]	1.8 µM

Stronger by IC50, values ahead:

IC50	SMILES
0.045 µM	CCOc1ccccc1O[C@@H]1CCCN(c2cncc(NC(=O)Nc3cc(C(F)(F)F)cc(C(F)(F)F)c3)n2)C1 [Example 1, (R)-1-(3,5-bis(trifluoromethyl)phenyl)-3-(6-(3-(2-ethoxyphenoxy)piperidin-1-yl)pyrazin-2-yl)urea]
0.053 µM	CCOc1ccccc1O[C@@H]1CCCN(c2cncc(NC(=O)c3ccccc3)n2)C1 [Example 6, (R)—N-(6-(3-(2-ethoxyphenoxy)piperidin-1-yl)pyrazin-2-yl)benzamide]
0.045 µM	CCOc1ccccc1O[C@@H]1CCCN(c2cncc(NC(=O)c3ccc(Cl)cc3)n2)C1 [Example 7, (R)-4-chloro-N-(6-(3-(2-ethoxyphenoxy)piperidin-1-yl)pyrazin-2-yl)benzamide]
0.019 µM	CCOc1ccccc1O[C@@H]1CCCN(c2cncc(NC(=O)c3ccc([N+](=O)[O-])cc3)n2)C1 [Example 10, (R)—N-(6-(3-(2-ethoxyphenoxy)piperidin-1-yl)pyrazin-2-yl)-4-nitrobenzamide]
0.025 µM	CCOc1ccccc1O[C@@H]1CCCN(c2cncc(NC(=O)C3CCN(S(C)(=O)=O)CC3)n2)C1 [Example 15]
0.01 µM	CCOc1ccccc1O[C@@H]1CCCN(c2cncc(NC(=O)C3CCN(S(=O)(=O)C(C)C)CC3)n2)C1 [Example 17, (R)—N-(6-(3-(2-ethoxyphenoxy)piperidin-1-yl)pyrazin-2-yl)-1-(isopropylsulfonyl)piperidine-4-carboxamide]
0.008 µM	CCOc1ccccc1O[C@@H]1CCCN(c2cncc(NC(=O)C3CCN(c4ncc(CC)cn4)CC3)n2)C1 [Example 18, (R)—N-(6-(3-(2-ethoxyphenoxy)piperidin-1-yl)pyrazin-2-yl)-1-(5-ethylpyrimidin-2-yl)piperidine-4-carboxamide]
0.054 µM	CCOc1ccccc1O[C@@H]1CCCN(c2cncc(NC(=O)Cc3cccc(C(F)(F)F)c3)n2)C1 [Example 26]
0.049 µM	CCOc1ccccc1O[C@@H]1CCCN(c2cncc(NC(=O)Cc3cc(C(F)(F)F)cc(C(F)(F)F)c3)n2)C1 [Example 27, (R)-2-(3,5-bis(trifluoromethyl)phenyl)-N-(6-(3-(2-ethoxyphenoxy)piperidin-1-yl)pyrazin-2-yl)acetamide]
0.018 µM	CCOc1ccccc1O[C@@H]1CCCN(c2cncc(NC(=O)CCc3ccccc3)n2)C1 [Example 29, (R)—N-(6-(3-(2-ethoxyphenoxy)piperidin-1-yl)pyrazin-2-yl)-3-phenylpropanamide]
